Measured values: the supplement of paper PMC10307832

Legend:
Test in all cases: relative viability (nuclei count vs DMSO), 5 days (fraction); higher = more cells survive
Dinaciclib + Navitoclax = compound: CCc1cnn2c(NCc3ccc[n+]([O-])c3)cc(N3CCCC[C@H]3CCO)nc12 [Dinaciclib] + CC1(C)CCC(c2ccc(Cl)cc2)=C(CN2CCN(c3ccc(C(=O)NS(=O)(=O)c4ccc(N[C@H](CCN5CCOCC5)CSc5ccccc5)c(S(=O)(=O)C(F)(F)F)c4)cc3)CC2)C1 [Navitoclax] (partner 0.5 µM)
How it was run: (§1)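 For relative viability, nuclei counts in treated wells were divided by those in vehicle wells. Lung cancer cell lines had been pin-tool dosed in 1536-well plates the day after seeding and cultured for 5 days, then fixed and stained in one step (final 0.05% Triton X-100, 1% formaldehyde, 1 ug/ml Hoechst) and imaged at 4×. Doses were one drug alone or a fixed anchor-drug dose plus five library-drug doses (not always all listed) in √10 steps, and values are duplicate-plate medians.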

Dinaciclib + Decitabine = compound: CCc1cnn2c(NCc3ccc[n+]([O-])c3)cc(N3CCCC[C@H]3CCO)nc12 [Dinaciclib] + Nc1ncn([C@H]2C[C@H](O)[C@@H](CO)O2)c(=O)n1 [Decitabine] (partner 2 µM)
How it was run: as §1

Dinaciclib + Luminespib = compound: CCc1cnn2c(NCc3ccc[n+]([O-])c3)cc(N3CCCC[C@H]3CCO)nc12 [Dinaciclib] + CCNC(=O)c1noc(-c2cc(C(C)C)c(O)cc2O)c1-c1ccc(CN2CCOCC2)cc1 [Luminespib] (partner 0.01 µM)
How it was run: as §1

Dinaciclib + AZD7762 = compound: CCc1cnn2c(NCc3ccc[n+]([O-])c3)cc(N3CCCC[C@H]3CCO)nc12 [Dinaciclib] + NC(=O)Nc1cc(-c2cccc(F)c2)sc1C(=O)N[C@H]1CCCNC1 [AZD7762] (partner 0.2 µM)
How it was run: as §1

Dinaciclib + Trametinib = compound: CCc1cnn2c(NCc3ccc[n+]([O-])c3)cc(N3CCCC[C@H]3CCO)nc12 [Dinaciclib] + CC(=O)Nc1cccc(-n2c(=O)n(C3CC3)c(=O)c3c(Nc4ccc(I)cc4F)n(C)c(=O)c(C)c32)c1 [Trametinib] (partner 0.02 µM)
How it was run: as §1

Row | Cell Line | relative viability (Dinaciclib + Navitoclax; first compound 0.009487 µM) | relative viability (Dinaciclib + Navitoclax; first compound 0.03 µM) | relative viability (Dinaciclib + Navitoclax; first compound 0.09487 µM) | relative viability (Dinaciclib + Navitoclax; first compound 0.3 µM) | relative viability (Dinaciclib + Decitabine; first compound 0.009487 µM) | relative viability (Dinaciclib + Decitabine; first compound 0.03 µM) | relative viability (Dinaciclib + Decitabine; first compound 0.09487 µM) | relative viability (Dinaciclib + Decitabine; first compound 0.3 µM) | relative viability (Dinaciclib + Luminespib; first compound 0.009487 µM) | relative viability (Dinaciclib + Luminespib; first compound 0.03 µM) | relative viability (Dinaciclib + Luminespib; first compound 0.09487 µM) | relative viability (Dinaciclib + Luminespib; first compound 0.3 µM) | relative viability (Dinaciclib + AZD7762; first compound 0.009487 µM) | relative viability (Dinaciclib + AZD7762; first compound 0.03 µM) | relative viability (Dinaciclib + AZD7762; first compound 0.09487 µM) | relative viability (Dinaciclib + AZD7762; first compound 0.3 µM) | relative viability (Dinaciclib + Trametinib; first compound 0.009487 µM) | relative viability (Dinaciclib + Trametinib; first compound 0.03 µM) | relative viability (Dinaciclib + Trametinib; first compound 0.09487 µM) | relative viability (Dinaciclib + Trametinib; first compound 0.3 µM)
1 | 201T | 1.31 | 1.19 | 0.416 | 0.32 | 0.943 | 0.767 | 0.168 | 0.209 | 1.2 | 0.342 | 0.24 | 0.256 | 0.79 | 0.844 | 0.252 | 0.228 | 0.821 | 0.675 | 0.249 | 0.228
2 | A549 | 1.05 | 0.0352 | 0.038 | 0.0398 | 0.293 | 0.205 | 0.0304 | 0.0308 |  |  |  |  |  |  |  |  |  |  |  | 
3 | A-427 | 0.94 | 0.434 | 0.089 | 0.0921 | 0.508 | 0.153 | 0.119 | 0.116 | 0.554 | 0.0941 | 0.0692 | 0.0782 | 0.75 | 0.161 | 0.117 | 0.102 | 0.624 | 0.117 | 0.109 | 0.115
4 | ABC-1 |  |  |  |  | 0.963 | 0.338 | 0.297 | 0.237 | 0.581 | 0.209 | 0.173 | 0.178 | 0.87 | 0.642 | 0.189 | 0.178 |  |  |  | 
5 | BEN | 0.102 | 0.0524 | 0.0833 | 0.0414 | 0.88 | 0.572 | 0.245 | 0.313 | 0.323 | 0.221 | 0.174 | 0.133 | 0.894 | 0.566 | 0.217 | 0.287 | 1.44 | 0.981 | 0.349 | 0.291
6 | CAL-12T | 0.487 | 0.0619 | 0.0673 | 0.0743 |  |  |  |  | 0.133 | 0.085 | 0.0815 | 0.0961 | 0.565 | 0.187 | 0.14 | 0.183 | 0.187 | 0.0992 | 0.122 | 0.11
7 | COR-L23 | 0.994 | 0.0863 | 0.066 | 0.0652 | 0.388 | 0.114 | 0.0933 | 0.0952 | 0.226 | 0.0887 | 0.0655 | 0.0681 |  |  |  |  | 0.508 | 0.111 | 0.0846 | 0.0705
8 | COR-L 105 | 0.496 | 0.213 | 0.214 | 0.218 | 0.618 | 0.408 | 0.304 | 0.278 | 0.509 | 0.214 | 0.229 | 0.169 |  |  |  |  | 0.41 | 0.327 | 0.35 | 0.329
9 | ChaGo-K-1 | 0.541 | 0.219 | 0.173 | 0.17 | 0.531 | 0.287 | 0.138 | 0.128 | 0.342 | 0.182 | 0.123 | 0.0984 | 0.904 | 0.389 | 0.131 | 0.117 | 0.856 | 0.25 | 0.14 | 0.102
10 | EKVX | 0.738 | 0.298 | 0.0814 | 0.106 | 0.388 | 0.196 | 0.136 | 0.123 | 0.858 | 0.705 | 0.137 | 0.101 | 0.756 | 0.436 | 0.127 | 0.101 | 0.333 | 0.219 | 0.11 | 0.108
11 | EMC-BAC-2 | 1.22 | 0.576 | 0.205 | 0.213 | 0.991 | 0.26 | 0.22 | 0.24 | 1.15 | 0.382 | 0.145 | 0.16 | 0.935 | 0.657 | 0.22 | 0.237 | 0.842 | 0.21 | 0.219 | 0.22
12 | EPLC-272H | 1.05 | 0.576 | 0.411 | 0.0616 | 0.36 | 0.088 | 0.0389 | 0.0501 | 0.2 | 0.0547 | 0.042 | 0.0355 | 0.444 | 0.0986 | 0.0404 | 0.0369 | 0.223 | 0.0654 | 0.0408 | 0.056
13 | H3255 | 0.487 | 0.0787 | 0.0605 | 0.0759 | 0.642 | 0.237 | 0.157 | 0.147 | 0.813 | 0.72 | 0.204 | 0.18 | 1.04 | 0.62 | 0.209 | 0.208 | 0.629 | 0.27 | 0.194 | 0.201
14 | HARA | 1.04 | 0.0747 | 0.0574 | 0.0511 | 0.437 | 0.205 | 0.135 | 0.101 | 0.367 | 0.0789 | 0.0403 | 0.0571 | 0.349 | 0.116 | 0.127 | 0.123 | 0.519 | 0.213 | 0.114 | 0.111
15 | HCC-15 | 0.587 | 0.244 | 0.0855 | 0.0945 | 0.521 | 0.139 | 0.13 | 0.129 | 0.122 | 0.1 | 0.102 | 0.141 | 1.18 | 0.88 | 0.113 | 0.0634 | 0.329 | 0.248 | 0.116 | 0.112
16 | HCC-44 | 1.08 | 0.15 | 0.149 | 0.161 | 0.804 | 0.406 | 0.344 | 0.317 | 0.61 | 0.2 | 0.179 | 0.17 | 0.999 | 1.05 | 0.351 | 0.327 | 1.13 | 0.846 | 0.343 | 0.339
17 | HCC-78 | 0.763 | 0.35 | 0.107 | 0.136 | 0.612 | 0.32 | 0.206 | 0.205 |  |  |  |  | 0.941 | 0.637 | 0.226 | 0.209 | 0.631 | 0.402 | 0.229 | 0.183
